We go through 80 compounds from ChEMBL document CHEMBL3727364, “Resorcinol n-aryl amide compounds, for use as pyruvate dehydrogenase kinase inhibitors” (2015).

In this test the target is [Pyruvate dehydrogenase (acetyl-transferring)] kinase isozyme 1, mitochondrial (Homo sapiens, UniProt Q15118). Nature of the test: Binding affinity to pyruvate dehydrogenase kinase 1 (unknown origin) incubated for 90 mins by VER-00160364 probe based fluorescence polarization assay.
Chain of [Pyruvate dehydrogenase (acetyl-transferring)] kinase isozyme 1, mitochondrial (Q15118 whole entry): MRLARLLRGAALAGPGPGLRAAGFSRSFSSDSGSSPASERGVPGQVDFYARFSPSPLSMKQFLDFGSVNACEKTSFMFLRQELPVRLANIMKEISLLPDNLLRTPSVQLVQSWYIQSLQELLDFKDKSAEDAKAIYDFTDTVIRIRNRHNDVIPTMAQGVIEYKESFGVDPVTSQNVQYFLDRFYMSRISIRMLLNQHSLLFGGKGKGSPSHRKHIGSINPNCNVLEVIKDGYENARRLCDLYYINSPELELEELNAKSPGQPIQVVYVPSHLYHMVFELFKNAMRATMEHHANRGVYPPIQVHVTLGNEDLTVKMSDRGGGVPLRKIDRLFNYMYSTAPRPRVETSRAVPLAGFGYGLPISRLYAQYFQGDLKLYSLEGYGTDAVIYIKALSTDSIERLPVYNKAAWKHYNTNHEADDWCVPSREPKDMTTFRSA

Usually IC50 stands for the concentration needed to halve the response being measured. Lower therefore signals greater potency. Consider `O=C(c1ccc(N(Cc2cccnc2)C(=O)c2ccc(O)cc2O)cc1)N1CCC(O)CC1`, for which the IC50 is 100 nM.

For the compound `Cc1cc(S(=O)(=O)N2CCN(C)CC2)cnc1-c1ccc(N(Cc2ccccc2)C(=O)c2ccc(O)cc2O)cc1`, the half-maximal inhibitory concentration (IC50) was found to be 10 nM. Then `CN(Cc1ccnc2ccccc12)C(=O)c1ccc(N(Cc2ccccc2)C(=O)c2ccc(O)cc2O)cc1`, with 100 nM; and `CN(Cc1ccc2ncccc2c1)C(=O)c1ccc(N(Cc2cccnc2)C(=O)c2ccc(O)cc2O)cc1`, with 100 nM. `CC(c1ccccc1)N(C(=O)c1ccc(O)cc1O)c1ccc(C(=O)N(C)C)cc1` (stereo not given) yielded an IC50 of 1000 nM.

The compound `CCCc1cncnc1-c1ccc(N(Cc2ccccc2)C(=O)c2ccc(O)cc2O)cc1` gave an IC50 of 1000 nM. `Cc1cc(S(=O)(=O)NCc2ccccn2)cnc1-c1ccc(N(Cc2ccccc2)C(=O)c2ccc(O)cc2O)cc1` came in with an IC50 of 10 nM. Then `Cc1c(-c2ccc(N(Cc3ccccc3)C(=O)c3ccc(O)cc3O)cc2)ccc2c1NC(=O)C2=O`, with 1000 nM. The compound `CN(Cc1cccc2cnccc12)C(=O)c1ccc(N(Cc2cccnc2)C(=O)c2ccc(O)cc2O)cc1` returned a half-maximal inhibitory concentration (IC50) of 100 nM. Then `COc1ccc(CN(C)C(=O)c2ccc(N(Cc3ccccc3)C(=O)c3cc(Cl)c(O)cc3O)cc2)cc1`, with 100 nM; and `O=C(c1ccc(N(Cc2ccccc2)C(=O)c2ccc(O)cc2O)cc1)N1CCC(O)CC1`, with 100 nM; and `Cc1nc(C(F)(F)F)nc(-c2ccc(N(Cc3ccccc3)C(=O)c3ccc(O)cc3O)cc2)c1C`, with 1000 nM. With `CNC(=O)c1ccc(N(Cc2ccccc2)C(=O)c2ccc(O)cc2O)cc1`, the concentration for half-maximal inhibition (IC50) is 1000 nM. In the case of `CNS(=O)(=O)c1cnc(-c2ccc(N(Cc3ccccc3)C(=O)c3ccc(O)cc3O)cc2)c(C)c1`, the IC50 stood at 100 nM. The value for `O=C(c1ccc(O)cc1O)N(Cc1ccccc1)c1ccc(-c2nc(Cl)nc3[nH]ccc23)cc1` was 1000 nM; that for `CN(Cc1ccc(OC(F)(F)F)cc1)C(=O)c1ccc(N(Cc2cccnc2)C(=O)c2ccc(O)cc2O)cc1` was 100 nM; that for `O=C(c1ccc(O)cc1O)N(Cc1ccccc1)c1ccc(-c2nc(Cl)nc3c2COCC3)cc1` was 1000 nM. As to `CN(Cc1ccc2ccccc2c1)C(=O)c1ccc(N(Cc2ccccc2)C(=O)c2ccc(O)cc2O)cc1`, the concentration for half-maximal inhibition (IC50) amounted to 10000 nM. This IC50 lies about 10-fold higher than the previous one. `Cc1cc(-c2ccc(N(Cc3ccccc3)C(=O)c3ccc(O)cc3O)cc2)nnc1Cl`: the IC50 is 10000 nM. `C[C@@H](c1ccccc1)N(C(=O)c1cc(Cl)c(O)cc1O)c1ccc(C(=O)N(C)C)cc1` gave a 50% inhibitory concentration (IC50) of 1000 nM. This IC50 lies about 10-fold lower than the previous one. `Cc1cc(S(=O)(=O)N2CCC(F)(F)CC2)cnc1-c1ccc(N(Cc2ccccc2)C(=O)c2ccc(O)cc2O)cc1` returned a half-inhibitory concentration (IC50) of 1000 nM. `CN(Cc1cccc2cnccc12)C(=O)c1ccc(N(Cc2ccccc2)C(=O)c2ccc(O)cc2O)cc1` displayed an IC50 of 100 nM. As to `Cc1cc(S(=O)(=O)N2CCCCC2)cnc1-c1ccc(N(Cc2ccccc2)C(=O)c2ccc(O)cc2O)cc1`, the IC50 came out at 100 nM.

Take `Cc1cc(S(=O)(=O)NCCN(C)C)cnc1-c1ccc(N(Cc2ccccc2)C(=O)c2ccc(O)cc2O)cc1`: the 50% inhibitory concentration (IC50) came out at 100 nM.

In turn, `Cc1cccnc1-c1ccc(N(Cc2ccccc2)C(=O)c2ccc(O)cc2O)cc1` yielded an IC50 of 1000 nM. In turn, `CN(Cc1cccc(C(F)(F)F)c1)C(=O)c1ccc(N(Cc2ccccc2)C(=O)c2ccc(O)cc2O)cc1` came in with an IC50 of 10000 nM. In turn, `Cc1cc(S(=O)(=O)NCc2cccnc2)cnc1-c1ccc(N(Cc2ccccc2)C(=O)c2ccc(O)cc2O)cc1` came in with a half-inhibitory concentration (IC50) of 10 nM. `O=C(NC1CC1)c1ccc(N(Cc2ccccc2)C(=O)c2ccc(O)cc2O)cc1` returned a 50% inhibitory concentration (IC50) of 1000 nM. `CN(Cc1cccc2cccnc12)C(=O)c1ccc(N(Cc2ccccc2)C(=O)c2ccc(O)cc2O)cc1` displayed an IC50 of 100 nM.

`COCCN(C)S(=O)(=O)c1cnc(-c2ccc(N(Cc3ccccc3)C(=O)c3ccc(O)cc3O)cc2)c(C)c1` registered a concentration for half-maximal inhibition (IC50) of 100 nM. `CN(C)C(=O)c1ccc(N(Cc2ccccc2)C(=O)c2ccc(O)cc2O)cc1` displayed an IC50 of 100 nM. This counts as sub-micromolar. Regarding `Cc1cccnc1-c1ccc(N(Cc2ccccc2)C(=O)c2cc(Cl)c(O)cc2O)cc1`, the IC50 came to 1000 nM.

On to `COc1ccc(CNC(=O)c2ccc(N(Cc3cccnc3)C(=O)c3ccc(O)cc3O)cc2)cc1`, for which the IC50 was found to be 100 nM. Compound `CN(Cc1cccs1)C(=O)c1ccc(N(Cc2ccccc2)C(=O)c2ccc(O)cc2O)cc1` displayed an IC50 of 100 nM. `O=C(c1ccc(O)cc1O)N(Cc1ccccc1)c1ccccc1` yielded a concentration for half-maximal inhibition (IC50) of 1000 nM. `CN(Cc1ccc2nccnc2c1)C(=O)c1ccc(N(Cc2cccnc2)C(=O)c2ccc(O)cc2O)cc1` gave an IC50 of 10 nM. This IC50 is about 100-fold lower than that of the compound before.

As for `CN(C)C(=O)c1ccc(N(Cc2ccc(F)cc2)C(=O)c2cc(Cl)c(O)cc2O)cc1`, the IC50 turned out to be 100 nM.

`CC(=O)N1CCN(S(=O)(=O)c2cnc(-c3ccc(N(Cc4ccccc4)C(=O)c4ccc(O)cc4O)cc3)c(C)c2)CC1`: the IC50 was 10 nM. `CCOC(=O)c1nc(C)nc(-c2ccc(N(Cc3ccccc3)C(=O)c3ccc(O)cc3O)cc2)c1C`: the IC50 is 10000 nM. The value for `CC(c1ccccc1)N(C(=O)c1cc(Cl)c(O)cc1O)c1ccc(C(=O)N(C)C)cc1` (stereo not given) was 100 nM. The compound `CN(Cc1ccc2ncccc2c1)C(=O)c1ccc(N(Cc2ccccc2)C(=O)c2ccc(O)cc2O)cc1` showed an IC50 of 100 nM. `CN(Cc1ccc2ccccc2n1)C(=O)c1ccc(N(Cc2cccnc2)C(=O)c2ccc(O)cc2O)cc1` gave an IC50 of 100 nM. Then `Cc1cc(N)ncc1-c1ccc(N(Cc2ccccc2)C(=O)c2ccc(O)cc2O)cc1`, with 1000 nM; and `CN(Cc1ccc(C#N)cc1)C(=O)c1ccc(N(Cc2cccnc2)C(=O)c2ccc(O)cc2O)cc1`, with 100 nM.

In turn, `COc1cnc(Cl)nc1-c1ccc(N(Cc2ccccc2)C(=O)c2ccc(O)cc2O)cc1` had an IC50 of 100 nM. Then `Cc1cc(Cl)nnc1-c1ccc(N(Cc2ccccc2)C(=O)c2ccc(O)cc2O)cc1`, with 100 nM. For `Cc1cc(S(=O)(=O)NCCCC(N)=O)cnc1-c1ccc(N(Cc2ccccc2)C(=O)c2ccc(O)cc2O)cc1`, the IC50 was found to be 10 nM. Against the preceding compound, the IC50 is about 10-fold lower. For the compound `Cn1ccnc1-c1ccc(N(Cc2ccccc2)C(=O)c2ccc(O)cc2O)cc1`, the IC50 was 1000 nM. Compared with the last compound, the IC50 is about 100-fold higher. With `COc1ccc(CN(C)C(=O)c2ccc(N(Cc3cccnc3)C(=O)c3ccc(O)cc3O)cc2)cc1`, the IC50 was determined as 10 nM. Against the preceding compound, the IC50 is about 100-fold lower. The value for `CN(Cc1cccc2ncccc12)C(=O)c1ccc(N(Cc2cccnc2)C(=O)c2ccc(O)cc2O)cc1` was 100 nM. For `COc1ccc(CN(C)C(=O)c2ccc(N(Cc3cccc(C)c3)C(=O)c3cc(Cl)c(O)cc3O)cc2)cc1`, the half-maximal inhibitory concentration (IC50) is 1000 nM.

Regarding `C[C@H](c1ccccc1)N(C(=O)c1cc(Cl)c(O)cc1O)c1ccc(C(=O)N(C)C)cc1`, the IC50 was 1000 nM. With `CN(C)C(=O)c1ccc(N(Cc2cccc(O)c2)C(=O)c2cc(Cl)c(O)cc2O)cc1`, the IC50 is 100 nM. `CN(Cc1cccc2ncccc12)C(=O)c1ccc(N(Cc2ccccc2)C(=O)c2ccc(O)cc2O)cc1` had a half-inhibitory concentration (IC50) of 100 nM. In turn, `Cc1ccc(CN(C(=O)c2cc(Cl)c(O)cc2O)c2ccc(C(=O)N(C)C)cc2)cc1` yielded an IC50 of 100 nM. The compound `O=C(NC1CC1)c1ccc(N(Cc2cccnc2)C(=O)c2ccc(O)cc2O)cc1` came in with a concentration for half-maximal inhibition (IC50) of 1000 nM.

In turn, `Cc1nc(N)ccc1-c1ccc(N(Cc2ccccc2)C(=O)c2ccc(O)cc2O)cc1` returned an IC50 of 1000 nM.

`CNC(=O)c1ccc(N(Cc2cccnc2)C(=O)c2ccc(O)cc2O)cc1` came in with an IC50 of 1000 nM. In other words, the single-digit micromolar range. Then `CN(Cc1ccc2nccnc2c1)C(=O)c1ccc(N(Cc2ccccc2)C(=O)c2ccc(O)cc2O)cc1`, with 10 nM; and `CN(Cc1ccc2ccccc2n1)C(=O)c1ccc(N(Cc2ccccc2)C(=O)c2ccc(O)cc2O)cc1`, with 100 nM; and `CN(C)C(=O)c1ccc(N(Cc2cccc(C#N)c2)C(=O)c2cc(Cl)c(O)cc2O)cc1`, with 100 nM. In the case of `COc1ccc(CNC(=O)c2ccc(N(Cc3ccccc3)C(=O)c3ccc(O)cc3O)cc2)cc1`, the IC50 amounted to 1000 nM.

Compound `CN(C)CCN(C)C(=O)c1ccc(N(Cc2ccccc2)C(=O)c2ccc(O)cc2O)cc1` registered an IC50 of 1000 nM. `CN(Cc1ccnc2ccccc12)C(=O)c1ccc(N(Cc2cccnc2)C(=O)c2ccc(O)cc2O)cc1` returned a 50% inhibitory concentration (IC50) of 100 nM. Then `Cc1ccnnc1-c1ccc(N(Cc2ccccc2)C(=O)c2ccc(O)cc2O)cc1`, with 100 nM. For the compound `CN(Cc1cccc2ccccc12)C(=O)c1ccc(N(Cc2cccnc2)C(=O)c2ccc(O)cc2O)cc1`, the IC50 amounted to 10 nM. Then `CN(C)CCN(C)C(=O)c1ccc(N(Cc2cccnc2)C(=O)c2ccc(O)cc2O)cc1`, with 1000 nM; and `CN(Cc1cccs1)C(=O)c1ccc(N(Cc2cccnc2)C(=O)c2ccc(O)cc2O)cc1`, with 100 nM. `CCc1cnc(C)nc1-c1ccc(N(Cc2ccccc2)C(=O)c2ccc(O)cc2O)cc1` came in with an IC50 of 100 nM. With `Cc1cnc(Cl)nc1-c1ccc(N(Cc2ccccc2)C(=O)c2ccc(O)cc2O)cc1`, the IC50 was found to be 10 nM. `CC(=O)NCCNS(=O)(=O)c1cnc(-c2ccc(N(Cc3ccccc3)C(=O)c3ccc(O)cc3O)cc2)c(C)c1` gave an IC50 of 10 nM. This counts as double-digit nanomolar. The compound `O=C(c1ccc(O)cc1O)N(Cc1ccccc1)c1ccc(-c2ncnc3ccsc23)cc1` gave a 50% inhibitory concentration (IC50) of 10000 nM. Regarding `COc1ccc(CN(C)C(=O)c2ccc(N(Cc3ccccc3)C(=O)c3ccc(O)cc3O)cc2)cc1`, the IC50 is 100 nM. `CN(Cc1cccc2ccccc12)C(=O)c1ccc(N(Cc2ccccc2)C(=O)c2ccc(O)cc2O)cc1` registered an IC50 of 1000 nM. Against the preceding compound, the IC50 is about 10-fold higher. With `Cc1cc(S(=O)(=O)NCc2ccccc2)cnc1-c1ccc(N(Cc2ccccc2)C(=O)c2ccc(O)cc2O)cc1`, the half-inhibitory concentration (IC50) came to 100 nM. For the compound `Cc1cc(S(=O)(=O)N2CCOCC2)cnc1-c1ccc(N(Cc2ccccc2)C(=O)c2ccc(O)cc2O)cc1`, the half-inhibitory concentration (IC50) came to 100 nM. In turn, `CN(C)C(=O)c1ccc(N(Cc2ccccc2)C(=O)c2cc(Cl)c(O)cc2O)cc1` showed an IC50 of 10 nM. This IC50 is about 10-fold lower than that of the compound before. Take `CN(C)C(=O)c1ccc(N(Cc2ccc(C(F)(F)F)cc2)C(=O)c2cc(Cl)c(O)cc2O)cc1`: the IC50 worked out at 100 nM. `O=C(c1ccc(O)cc1O)N(Cc1ccccc1)c1ccc(-c2nc(Cl)nc3ccsc23)cc1` registered a half-maximal inhibitory concentration (IC50) of 10000 nM. As for `Cc1cc(S(=O)(=O)NCc2cccs2)cnc1-c1ccc(N(Cc2ccccc2)C(=O)c2ccc(O)cc2O)cc1`, the IC50 was 10 nM.
